Laboratory results taken from patent publication US7383788B2, “Enhanced feeding and growth rates of aquatic animals fed an astaxanthin product derived from marigold extract” (DSM IP Assets B.V., priority 2002, dated 2008).

Columns and labels:
[1] = test system: Rainbow trout; test: Field trial on rainbow trout in a commercial fish farm (pigmentation and growth); assay type: in vivo; settings: 90 ppm in feed
Procedure: A field trial with Rainbow Trout was done to assess pigmentation and growth in a commercial fish farm. The fish were grown in concrete raceways where fish were stocked in two sections of different raceways. In one section we had the control treatment which was fed with feed containing synthetic astaxanthin at 90 ppm. […] The water temperature was constant at 16° C. throughout the test as was the flow rate at 60 1/sec. Fish were fed to satiate, feed consumed was weighed for each treatment and conversion rates calculated based on the initial and final biomass.

[2] = test system: Penaeid shrimp (Litopenaeus vannamei); test: Field trial on a commercial shrimp farm using several pigment sources to evaluate production; assay type: in vivo
Description: Penaeid shrimp (Litopenaeus vannamei) with an average initial weight of 0.96 gr were stocked at a density of 25.04 individuals/square meter in […]. There were three ponds for each treatment to give a total of 12 ponds. The size of the ponds differed slightly as shown in Table 3 where a summary of the yields obtained after harvesting are also presented. All ponds were fed with the same diets varying only in the type of pigment used and keeping one as a control without pigment addition. Weight of feed supplied to each pond was recorded daily and the feed conversion ratio calculated after harvesting. Culture of the shrimp was done following normal commercial procedures and doing exactly the same operations in all ponds.

**Q.** How did the “Average Wt gain” value [1] turn out when CC1=C(/C=C/C(C)=C/C=C/C(C)=C/C=C/C=C(C)/C=C/C=C(C)/C=C/C2=C(C)C(=O)[C@@H](O)CC2(C)C)C(C)(C)C[C@H](O)C1=O [Synthetic astaxanthin, astaxanthin] was run?
**A.** Its value is 0.188 kg.

**Q.** And the “Average end Wt” value [1]?
**A.** Its value is 0.337 kg.

**Q.** And the “Conv. Ratio” value ([1]; based on initial and final biomass)?
**A.** Its value is 1.56.

**Q.** What about the average weight gain ([1]; end of feeding trial) of the same compound?
**A.** The average weight gain was 188 grams.

**Q.** And the Feed consumed ([1]; fed to satiate)?
**A.** The Feed consumed was 125.2 kg.

**Q.** What about the “Final Biomass” value ([1]; fed to satiate, 16° C.) of the same compound?
**A.** The value was 154.6 kg.

**Q.** And the “Harvest Kg/Hect” value ([2]; 25 ppm pigment in feed)?
**A.** Its value is 1,283 Kg/Hect.

**Q.** And the “% Survival” value ([2]; 25 ppm pigment in feed, at harvest after 92-100 days)?
**A.** Its value is 66.5%.

**Q.** What about the “Feed Conv Ratio” value ([2]; 25 ppm pigment in feed, calculated after harvesting) of the same compound?
**A.** Its value is 1.62.

**Q.** And the “Harvest Kg” value ([2]; 25 ppm pigment in feed, three ponds)?
**A.** The value was 18,729 Kg.

**Q.** And the “survival rate (in words)” value ([2]; after harvesting)?
**A.** Its value is “low survival rate”.
